According to ChEMBL document CHEMBL4033720, “Discovery of novel cyclic peptide inhibitors of dengue virus NS2B-NS3 protease with antiviral activity” (Bioorg Med Chem Lett, 2017):

Experiments:
[1] = Toxicity in BHK21 cells assessed a reduction in cell viability after 4 days by resazurin dye based method; design: species or system Mesocricetus auratus, BHK-21; conditions: hamster
[2] = Stability assessed as dengue virus 2 NS2B-NS3 protease-mediated compound degradation at 200 uM in presence of […] incubated for 0 to 22.5 hrs by LC-MS method; format: ADME; conditions: dengue virus type 2, 200 µM
[3] = Stability assessed as dengue virus 2 NS2B-NS3 protease-mediated compound degradation at 200 uM in presence of 100 nM enzyme incubated for 24 hrs by LC-MS method; format: ADME; conditions: dengue virus type 2, 24 h
[4] = Inhibition of dengue virus 2 NS2B-NS3 protease pre-incubated for 10 mins before Boc-Gly-Arg-Arg-peptidyl-4-methylcoumaryl-7-amide substrate addition and measured after 2 hrs by fluorescence based assay; design: species or system dengue virus type 2
dengue virus type 2 = test: Antiviral activity against dengue virus 2 infected in BHK21 cells assessed as inhibition of virus-induced cytopathic effect after 4 days by resazurin dye based method; format: functional, cell-based; conditions: Dengue virus, BHK-21, 96 h; read-out: EC50
[5] = Stability assessed as dengue virus 2 NS2B-NS3 protease-mediated compound degradation at 200 uM in presence of […] incubated for 22.5 hrs by LC-MS method; format: ADME; conditions: dengue virus type 2, 22.5 h

| Stability [2] | Stability [3] | IC50 [4] [µM] | Stability [5] | Compound | CC50 at 96 h [1] [µM] | EC50 (dengue virus type 2) [µM] |
| --- | --- | --- | --- | --- | --- | --- |
| Unstable | Stable | 1.7 |  | C[C@@H]1NC(=O)[C@H](CCCCN)NC(=O)[C@H](CCCNC(=N)N)NC(=O)[C@H](CCCNC(=N)N)NC(=O)[C@@H](CCCNC(=N)N)NC(=O)[C@@H](Cc2ccccc2)NC(=O)[C@H](Cc2cccc3ccccc23)NC(=O)[C@H](CCc2ccccc2)NC1=O | 134 | 11.8 |
|  |  | 2.1 | Stable | C[C@@H]1NC[C@H](CCCCN)NC(=O)[C@H](CCCNC(=N)N)NC(=O)[C@H](CCCNC(=N)N)NC(=O)[C@@H](CCCNC(=N)N)NC(=O)[C@@H](Cc2ccccc2)NC(=O)[C@H](Cc2cccc3ccccc23)NC(=O)[C@H](CCc2ccccc2)NC1=O | 129 | 11.4 |
